# Laboratory results from publication PMC6930622, “Validation of an HPLC Method for the Simultaneous Quantification of Metabolic Reaction Products Catalysed by CYP2C11 Enzymes in Rat Liver Microsomes: In Vitro Inhibitory Effect of Salicylic Acid on CYP2C11 Enzyme” (Molecules, 2019).
# Target: T1, CYP2C11 (Rattus norvegicus, UniProt P08683)
# T1 sequence (P08683 1-500): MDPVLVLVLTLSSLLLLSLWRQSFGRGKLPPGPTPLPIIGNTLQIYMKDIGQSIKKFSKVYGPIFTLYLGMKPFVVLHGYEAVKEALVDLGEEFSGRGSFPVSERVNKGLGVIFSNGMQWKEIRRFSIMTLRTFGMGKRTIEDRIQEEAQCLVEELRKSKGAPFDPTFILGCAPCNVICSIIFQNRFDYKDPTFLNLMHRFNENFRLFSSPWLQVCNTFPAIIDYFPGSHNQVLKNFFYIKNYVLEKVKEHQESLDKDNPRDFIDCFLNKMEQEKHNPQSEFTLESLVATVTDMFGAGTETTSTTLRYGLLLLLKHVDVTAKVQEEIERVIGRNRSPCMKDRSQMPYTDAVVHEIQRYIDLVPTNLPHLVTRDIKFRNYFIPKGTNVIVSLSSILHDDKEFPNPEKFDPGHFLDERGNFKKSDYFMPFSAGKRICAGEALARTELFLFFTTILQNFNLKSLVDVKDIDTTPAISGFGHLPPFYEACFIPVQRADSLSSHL
# Assay: testosterone […]α-hydroxylation in pooled male Sprague-Dawley rat liver microsomes, HPLC; Lineweaver-Burk
# Format: biochemical
smiles,measurement,value
O=C(O)c1ccccc1O [salicylic acid],Ki,84.6 ± 2.67 µM
